≈ marks a conversion by molar mass, not a printed value.
Legend:
human MAO A = target: T1, human MAO A (Homo sapiens, UniProt P21397); experiment: Continuous spectrophotometric assay of inhibitory activity to human MAO-A; format: biochemical; conditions: pH 7.3, 37° C., 80 μM substrate, 1% DMSO, 15 minutes pre-incubation; read-out: Ki, inhibition of human MAO A
T1 construct: Human placental MAO A is solubilized and purified as described; from tissue; host or cells: human placenta (enzyme supplied by Dr. Neal Castagnoli Jr's lab, Virginia Technical University)
T1 sequence (P21397 1-527): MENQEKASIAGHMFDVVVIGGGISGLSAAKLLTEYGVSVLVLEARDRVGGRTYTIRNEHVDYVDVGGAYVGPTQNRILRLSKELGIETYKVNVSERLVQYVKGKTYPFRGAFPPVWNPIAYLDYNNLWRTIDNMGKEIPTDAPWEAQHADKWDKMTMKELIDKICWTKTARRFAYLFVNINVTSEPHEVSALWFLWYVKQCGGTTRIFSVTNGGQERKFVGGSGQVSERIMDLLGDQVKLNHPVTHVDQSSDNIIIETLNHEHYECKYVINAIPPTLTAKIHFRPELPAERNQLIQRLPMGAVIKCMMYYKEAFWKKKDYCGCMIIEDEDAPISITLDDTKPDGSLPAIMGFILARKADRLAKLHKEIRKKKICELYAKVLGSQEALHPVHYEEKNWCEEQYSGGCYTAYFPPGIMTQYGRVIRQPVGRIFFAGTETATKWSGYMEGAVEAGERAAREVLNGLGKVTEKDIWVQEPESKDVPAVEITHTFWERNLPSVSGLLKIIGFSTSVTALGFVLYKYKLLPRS
Description: The continuous spectrophotometric assay for measuring MAO activity is based on a colored oxidation product of the chromogenic substrate, 1-methyl-4-(1-methyl-2-pyrryl)-1,2,3,6-tetrahydropyridine, by MAO enzymes. The product is stable for many days at room temperature. The conversion of the substrate to the oxidation product is followed continuously from the moment of mixing of the MAO enzyme with the substrate and the initial reaction rate curve is directly observed. The bright yellow-green oxidation product has a peak absorption at 421 nm with a broad band that can be measured between 390 nm to 440 nm. Thus, the assay can be performed on the least sophisticated spectrophotometric equipment.
Human placental MAO A is solubilized and purified as described in N. Castagnoli Jr. et al., J. Med Chem. Vol. 39, pp. 4756-4761 (1996) and J. I. Salach et al., J. of Bio. Chem., Vol. 260, p. 13199 (1985). The human placental MAO A is obtained as a concentrated solution (5 nmols per ml). Bovine liver MAO B is purified as described N. Castagnoli Jr. et al., J. Med Chem., Vol. 39, pp. 4756-4761 (1996) and J. I. Salach et al., Methods Enzymol., Vol. 142, pp […] (1987). The bovine liver MAO B is obtained as a concentrated solution (8 nmols per ml). Working stocks of the enzyme solutions are made by 1/50 dilution of initial stocks into 50 mM sodium phosphate and optionally 10% glycerol. The solutions are kept on ice until final dilution into the assay. Alternatively, the frozen MAO enzymes may be diluted 800-3200 fold into the 50 mM sodium phosphate buffer immediately before use. This method is useful when screening a large number of oxazolidinones.
Oxazolidinones are prepared in DMSO at a concentration of 50 mM. Serial dilutions of the 50 mM stock solution are made in DMSO to form additional stock solutions ranging from […] to 0.3125 mM. The stock solutions are then frozen until use. The stocks are diluted 1/100 into the final enzyme assay volume at the time of assay.
Typically, the enzyme, along with an oxazolidinone inhibitor, are preincubated for approximately 15 minutes in the sodium phosphate buffer prior to assay. The reactions are started by addition of the substrate. Initial velocities are generally collected over an interval of one to sixty minutes.
The assay functions well in the spectrophotometer cuvette for evaluating single oxazolidinone's MAO inhibitory activity. The assay has also been successfully adapted to operate in high throughput microtiterplate format (i.e., 96, 384 and 1536 well plate readers). Hundreds of assays can be run simultaneously. Assay volumes are 250 μL and the wells have an effective path length of 0.75 cm. Generally, the final composition of the assay in the microtiterplate comprises […] sodium phosphate (pH=7.3), oxazolidinone having concentration ranging up to 500 μM, 1% DMSO, 80 μM substrate (MAO A) or 200 μM substrate (MAO B), and sufficient enzyme to produce an absorbance change from 0.0005 to 0.050 per minute at 421 nm. The reaction is run at 37° C., and rapid temperature equilibration of the assay solution is achieved by preincubating the plate and stock solutions at about 37° C. The reaction is followed by recording the increase in absorbance at 421 nm. The oxidation product has an extinction coefficient of 25,000 M^-1 cm^-1 at 420. See: N. Castagnoli Jr. et al., J. Med Chem., Vol. 39, pp. 4756-4761 (1996). Initial rates are determined by linear regression of the progress curves over an absorbance change of 0.06-0.12 at 421 nm. This range represents a substrate consumption of approximately 5% in the assay. The percentage inhibition of an oxazolidinone is determined from the following equation
In the above equation, the term "negative control" refers to a complete assay with 1% of DMSO but no MAO enzyme. The term "positive control" refers to a complete assay with 1% of DMSO but no inhibitor. The term "rate (I)" refers to the reaction rate under a complete assay conditions. […]

H. influenzae 30063 = experiment: MIC by agar dilution against H. influenzae 30063; format: cell-based; conditions: Haemophilus influenzae, in vitro
Description: (§1) The oxazolidinone antibacterial agents of this invention have useful activity against a variety of organisms. The in vitro activity of compounds of this invention can be assessed by standard testing procedures such as the determination of minimum inhibitory concentration (MIC) by agar dilution as described in "Approved Standard. Methods for Dilution Antimicrobial Susceptibility Tests for Bacteria That Grow Aerobically", 3rd. ed., published 1993 by the National Committee for Clinical Laboratory Standards, Villanova, Pa., USA.

S. aureus UC 9213 = experiment: MIC by agar dilution against S. aureus UC 9213; format: cell-based; conditions: Staphylococcus aureus, UC9213, in vitro
Description: as §1

Ki (human MAO A)	MIC (H. influenzae 30063)	MIC (S. aureus UC 9213)	SMILES
648 µM	8 µg/mL (≈ 21.7 µM)	4 µg/mL (≈ 10.9 µM)	CC(=O)NC[C@H]1CN(c2ccc([C@H]3CC[S@@+]([O-])CC3)c(F)c2)C(=O)O1 [Example 1, (-)-N-[[(5S)-3-[3-fluoro-4-(cis-tetrahydro-1-oxido-2H-thiopyran-4-yl)phenyl]-2-oxo-5-oxazolidinyl]methyl]acetamide]
> 3000 µM	16 µg/mL (≈ 41.8 µM)	8 µg/mL (≈ 20.9 µM)	CCC(=O)NC[C@H]1CN(c2ccc([C@H]3CC[S@@+]([O-])CC3)c(F)c2)C(=O)O1 [Example 2, (-)-N-[[(5S)-3-[3-fluoro-4-(cis-tetrahydro-1-oxido-2H-thiopyran-4-yl)phenyl]-2-oxo-5-oxazolidinyl]methyl]propanamide]
734 µM	16 µg/mL (≈ 40.6 µM)	8 µg/mL (≈ 20.3 µM)	O=C(NC[C@H]1CN(c2ccc([C@H]3CC[S@@+]([O-])CC3)c(F)c2)C(=O)O1)C1CC1 [Example 3, (-)-N-[[(5S)-3-[3-fluoro-4-(cis-tetrahydro-1-oxido-2H-thiopyran-4-yl)phenyl]-2-oxo-5-oxazolidinyl]methyl]cyclopropanecarboxamide]
2570 µM	8 µg/mL (≈ 18.3 µM)	2 µg/mL (≈ 4.57 µM)	O=C(NC[C@H]1CN(c2ccc([C@H]3CC[S@@+]([O-])CC3)c(F)c2)C(=O)O1)C(Cl)Cl [Example 4, (-)-2,2-Dichloro-N-[[(5S)-3-[3-fluoro-4-(cis-tetrahydro-1-oxido-2H-thiopyran-4-yl)phenyl]-2-oxo-5-oxazolidinyl]methyl]acetamide]
3000 µM	8 µg/mL (≈ 20.1 µM)	4 µg/mL (≈ 10 µM)	CCC(=O)NC[C@H]1CN(c2ccc(C3CCS(=O)(=O)CC3)c(F)c2)C(=O)O1 [Example 5, (-)-N-[[(5S)-3-[3-fluoro-4-(tetrahydro-1,1-dioxido-2H-thiopyran-4-yl)phenyl]-2-oxo-5-oxazolidinyl]methyl]propanamide]
> 3000 µM	2 µg/mL (≈ 4.41 µM)	2 µg/mL (≈ 4.41 µM)	O=C(NC[C@H]1CN(c2ccc(C3CCS(=O)(=O)CC3)c(F)c2)C(=O)O1)C(Cl)Cl [Example 6, (-)-2,2-dichloro-N-[[(5S)-3-[3-fluoro-4-(tetrahydro-1,1-dioxido-2H-thiopyran-4-yl)phenyl]-2-oxo-5-oxazolidinyl]methyl]acetamide]
905 µM	4 µg/mL (≈ 10.5 µM)	4 µg/mL (≈ 10.5 µM)	CCC(=O)NC[C@H]1CN(c2ccc([C@H]3CC[S@+]([O-])CC3)c(F)c2)C(=O)O1 [Example 7, (-)-N-[[(5S)-3-[3-fluoro-4-(trans-tetrahydro-1-oxido-2H-thiopyran-4-yl)phenyl]-2-oxo-5-oxazolidinyl]methyl]propanamide]
> 3000 µM	16 µg/mL (≈ 40.6 µM)	8 µg/mL (≈ 20.3 µM)	O=C(NC[C@H]1CN(c2ccc([C@H]3CC[S@+]([O-])CC3)c(F)c2)C(=O)O1)C1CC1 [Example 8, (-)-N-[[(5S)-3-[3-fluoro-4-(trans-tetrahydro-1-oxido-2H-thiopyran-4-yl)phenyl]-2-oxo-5-oxazolidinyl]methyl]cyclopropanecarboxamide]
396 µM	2 µg/mL (≈ 4.57 µM)	1 µg/mL (≈ 2.29 µM)	O=C(NC[C@H]1CN(c2ccc([C@H]3CC[S@+]([O-])CC3)c(F)c2)C(=O)O1)C(Cl)Cl [Example 9, (-)-2,2-dichloro-N-[[(5S)-3-[3-fluoro-4-(trans-tetrahydro-1-oxido-2H-thiopyran-4-yl)phenyl]-2-oxo-5-oxazolidinyl]methyl]acetamide]

Source: patent US6083967A, “S-oxide and S,S-dioxide tetrahydrothiopyran phenyloxazolidinones” (Pharmacia & Upjohn Company, priority 1998, dated 2000)
